In the test the target is T1, Nuclear receptor ROR-gamma (Homo sapiens, UniProt P51449).
T1 sequence (P51449 whole entry): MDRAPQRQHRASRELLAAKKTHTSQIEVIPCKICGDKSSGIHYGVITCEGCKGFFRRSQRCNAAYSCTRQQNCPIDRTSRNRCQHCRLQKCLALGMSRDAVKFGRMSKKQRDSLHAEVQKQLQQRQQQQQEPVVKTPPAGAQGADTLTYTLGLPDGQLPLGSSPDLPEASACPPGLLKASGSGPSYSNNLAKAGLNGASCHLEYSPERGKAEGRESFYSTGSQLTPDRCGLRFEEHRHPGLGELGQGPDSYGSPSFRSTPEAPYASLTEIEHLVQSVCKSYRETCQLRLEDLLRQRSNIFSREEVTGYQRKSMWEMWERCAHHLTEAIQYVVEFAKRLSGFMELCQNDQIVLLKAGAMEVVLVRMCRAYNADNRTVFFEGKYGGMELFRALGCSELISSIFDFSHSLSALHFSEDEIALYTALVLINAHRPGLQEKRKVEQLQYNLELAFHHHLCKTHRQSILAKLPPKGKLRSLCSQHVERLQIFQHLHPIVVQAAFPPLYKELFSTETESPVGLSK
Description: Binding Assay. On the procedure: Compounds of the present invention were tested for ability to bind to RORγ in a cell-free competition assay with commercially available radio-ligand (RL), 25-hydroxy [26,27-3H] cholesterol (PerkinElmer, Cat. # NET674250UC), for a ligand binding site on a recombinant RORγ Ligand Binding Domain (LBD) protein expressed as a 6×His-Glutathione-S-Transferase (GST) fusion ( 6×His disclosed as SEQ ID NO: 2). The assay was performed in 96-well SPA plates (PerkinElmer, Cat. #1450-401) in 50 mM HEPES buffer, pH 7.4, containing 150 mM NaCl, 5 mM MgCl2, 10% (v/v) glycerol, 2 mM CHAPS, 0.5 mM β-octylglucopyranoside and 5 mM DTT. Tested compounds were dissolved in DMSO, and semi-log (3.162×) serial dilutions of the compounds were prepared in the same solvent. Two μL of the DMSO solutions were mixed with 28 μL of 8.6 nM 25-hydroxy [26,27-3H] cholesterol and 50 μL of 24 nM RORγ LBD. […] SPA signal for tritium beta radiation was registered on PerkinElmer Microbeta plate reader. Percent inhibition values were calculated based on the high signal obtained with DMSO control and the low signal observed with 10 μM standard RORγ inverse agonist T0901317 (SigmaAldrich, Cat. # T2320). The percent inhibition vs. concentration data were fit into a four-parameter model, and […] values were calculated from the fit as the concentrations corresponding to the inflection points on the dose-response curves.

The Ki is a measure of affinity in units of concentration, obtained from inhibition or displacement. A high value points to weaker binding. Take `CCS(=O)(=O)c1ccc(CC(=O)Nc2nc3c(s2)CN(CC2CC[C@@H](C(F)(F)F)N(C)C2)[C@H]3C(C)C)cc1` (stereo partly specified) [US9868748, I-A30]: the Ki is less than 100 nM.

The record behind these values is BindingDB's records for patent US9868748 (Vitae Pharmaceuticals, 2018).
